Data reported in ChEMBL document CHEMBL4483862, “Open-source discovery of chemical leads for next-generation chemoprotective antimalarials” (2018).

Tested on: Plasmodium berghei
Test: Luciferase/luciferin-expressing antifolate-resistant parasites were used to infect a culture of HepG2 cells that were pre-incubated with compounds. Infected hepatocytes emit light due to the luciferase reaction. Assay results are presented as the percent inhibition of light emission compared to control. […]
Assay type: functional
Details: sporozoite; for IC90: read-out: LUCIFERASE INFECTION ASSAY - IC90

CN(C)c1ccc(/C=C/c2cccc[n+]2C)cc1
IC50 (HEPG2TOX_HILL_SLOPE 3.15, HEPG2TOX_R_SQUARED 0.984, PBLUC_HILL_SLOPE 12.7, PBLUC_R_SQUARED 0.413, read-out: LUCIFERASE INFECTION ASSAY - IC50): 7.92 µM
IC90: > 9.01 µM

CC1=CC(C)(C)N2C(=O)C3(NCCc4c3[nH]c3ccccc43)c3cc(C)cc1c32 (configuration not stated)
IC50 (HEPG2TOX_HILL_SLOPE 3.19, HEPG2TOX_R_SQUARED 0.903, PBLUC_HILL_SLOPE 11.5, PBLUC_R_SQUARED 0.604, read-out: LUCIFERASE INFECTION ASSAY - IC50): 2.66 µM
IC90: 3.21 µM

COc1ccc(-[n+]2c(-c3ccc(Br)cc3)cn3c2CCc2ccccc2-3)cc1
IC50 (HEPG2TOX_HILL_SLOPE 3.09, HEPG2TOX_R_SQUARED 0.93, PBLUC_HILL_SLOPE 14.3, PBLUC_R_SQUARED 0.689, read-out: LUCIFERASE INFECTION ASSAY - IC50): 3.23 µM
IC90: 3.77 µM

COc1ccc(C(C)(O)c2nc(-c3ccccc3C)cs2)cc1 (configuration not stated)
IC50 (HEPG2TOX_HILL_SLOPE 3.12, HEPG2TOX_R_SQUARED 0.895, PBLUC_HILL_SLOPE 4.56, PBLUC_R_SQUARED 0.531, read-out: LUCIFERASE INFECTION ASSAY - IC50): 1.88 µM
IC90: 3.04 µM

CC1N(C)c2ccc(/C=C/c3nc4ccccc4s3)cc2C1(C)C (configuration not stated)
IC50 (HEPG2TOX_HILL_SLOPE 3.14, HEPG2TOX_R_SQUARED 0.947, PBLUC_HILL_SLOPE 1.36, 1.57, PBLUC_R_SQUARED 0.638, 0.693, read-out: LUCIFERASE INFECTION ASSAY - IC50): 1.03 µM
IC90: 4.73 µM

COc1ccc(NC(=O)c2ccn[nH]2)cc1NC(=O)c1ccc(Cl)cc1F
IC50 (HEPG2TOX_HILL_SLOPE 3.17, HEPG2TOX_R_SQUARED 0.943, PBLUC_HILL_SLOPE 8.03, PBLUC_R_SQUARED 0.294, read-out: LUCIFERASE INFECTION ASSAY - IC50): 3.7 µM
IC90: 4.87 µM

CS(=O)(=O)Nc1ccc(-c2csc(Nc3ccccn3)n2)cc1
IC50 (HEPG2TOX_HILL_SLOPE 3.13, HEPG2TOX_R_SQUARED 0.99, PBLUC_HILL_SLOPE 12.3, PBLUC_R_SQUARED 0.0453, read-out: LUCIFERASE INFECTION ASSAY - IC50): 8.1 µM
IC90: 9.68 µM

CC(=O)Nc1ccc2c(Cn3ncc(Cl)c(Cl)c3=O)cc(=O)oc2c1
IC50 (HEPG2TOX_HILL_SLOPE 3.1, HEPG2TOX_R_SQUARED 0.966, PBLUC_HILL_SLOPE 14.3, 0.748, PBLUC_R_SQUARED 0.481, 0.667, read-out: LUCIFERASE INFECTION ASSAY - IC50): 5.45 µM
IC90: 9.76 µM

O=C(Nc1ncc(Cc2ccccc2)s1)c1ccc2nc[nH]c2c1
IC50 (HEPG2TOX_HILL_SLOPE 3.11, HEPG2TOX_R_SQUARED 0.961, PBLUC_HILL_SLOPE 3.02, PBLUC_R_SQUARED 0.464, read-out: LUCIFERASE INFECTION ASSAY - IC50): 5.71 µM
IC90: > 10 µM

CN1C(=O)N(Cc2ccc3ccccc3c2)C(=O)C12CCN(Cc1ccc(C#CC(C)(C)O)cc1)CC2
IC50 (HEPG2TOX_HILL_SLOPE 3.16, HEPG2TOX_R_SQUARED 0.979, PBLUC_HILL_SLOPE 9.91, PBLUC_R_SQUARED 0.437, read-out: LUCIFERASE INFECTION ASSAY - IC50): 2.27 µM
IC90: 2.84 µM

CNc1nc2cnc(Nc3ccc(C(F)(F)F)cc3)cc2n1Cc1ccccc1
IC50 (HEPG2TOX_HILL_SLOPE 3.2, HEPG2TOX_R_SQUARED 0.033, read-out: LUCIFERASE INFECTION ASSAY - IC50): > 10 µM
IC90: > 10 µM

FC(F)(F)c1nc2ccccc2c2nnc(-c3ccc(Cl)cc3)n12
IC50 (HEPG2TOX_HILL_SLOPE 3.1, HEPG2TOX_R_SQUARED 0.959, PBLUC_HILL_SLOPE 22, PBLUC_R_SQUARED 0.45, read-out: LUCIFERASE INFECTION ASSAY - IC50): 3.51 µM
IC90: 3.88 µM

c1ccc(-c2ccc3ncc(-c4cccnc4)n3n2)cc1
IC50 (HEPG2TOX_HILL_SLOPE 3.18, HEPG2TOX_R_SQUARED 0.875, PBLUC_HILL_SLOPE 8.44, PBLUC_R_SQUARED 0.581, read-out: LUCIFERASE INFECTION ASSAY - IC50): 2.84 µM
IC90: 3.68 µM

COc1ccc(OC)c(NC(=O)c2ccc(NC3=C(Cl)C(=O)N(C4CCCCC4)C3=O)cc2)c1
IC50 (HEPG2TOX_HILL_SLOPE 3.19, HEPG2TOX_R_SQUARED 0.935, PBLUC_HILL_SLOPE 2.39, PBLUC_R_SQUARED 0.579, read-out: LUCIFERASE INFECTION ASSAY - IC50): 3.21 µM
IC90: 8.05 µM

COc1ccc(-c2csc(N/C=C3/C(=O)NC(=O)c4ccccc43)n2)cc1OC
IC50 (HEPG2TOX_HILL_SLOPE 3.11, HEPG2TOX_R_SQUARED 0.952, PBLUC_HILL_SLOPE 3, PBLUC_R_SQUARED 0.801, read-out: LUCIFERASE INFECTION ASSAY - IC50): 3.92 µM
IC90: 8.15 µM

CC(c1cccc(NC(=O)c2ccccc2)c1)N(C)c1ccc([N+](=O)[O-])cn1 (configuration not stated)
IC50 (HEPG2TOX_HILL_SLOPE 3.15, HEPG2TOX_R_SQUARED 0.897, PBLUC_HILL_SLOPE 11.5, PBLUC_R_SQUARED 0.814, read-out: LUCIFERASE INFECTION ASSAY - IC50): 1.08 µM
IC90: 1.3 µM

Cc1cc2occ(CC(=O)Nc3sccc3C(N)=O)c2cc1C(C)C
IC50 (HEPG2TOX_HILL_SLOPE 3.18, 2.30, HEPG2TOX_R_SQUARED 0.297, 0.732, PBLUC_HILL_SLOPE 15.1, PBLUC_R_SQUARED 0.252, read-out: LUCIFERASE INFECTION ASSAY - IC50): 3.55 µM
IC90: 4.1 µM

CC1N(C)c2ccc(/C=C/c3sc4ccccc4[n+]3C)cc2C1(C)C (configuration not stated)
IC50 (HEPG2TOX_HILL_SLOPE 3.18, HEPG2TOX_R_SQUARED 0.945, PBLUC_HILL_SLOPE 1.61, PBLUC_R_SQUARED 0.672, read-out: LUCIFERASE INFECTION ASSAY - IC50): 1.15 µM
IC90: 4.5 µM

CNc1nc2cnc(Nc3ccc(OC(F)(F)F)cc3)cc2n1Cc1ccccc1
IC50 (HEPG2TOX_HILL_SLOPE 3.1, HEPG2TOX_R_SQUARED 0.978, PBLUC_HILL_SLOPE 7.5, PBLUC_R_SQUARED 0.303, read-out: LUCIFERASE INFECTION ASSAY - IC50): 3.88 µM
IC90: 5.21 µM

COc1cc(OC)cc(-c2cc3c(Nc4ccc(OC)c(OC)c4)nccc3[nH]2)c1
IC50 (HEPG2TOX_HILL_SLOPE 3.11, HEPG2TOX_R_SQUARED 0.652, PBLUC_HILL_SLOPE 1.69, PBLUC_R_SQUARED 0.756, read-out: LUCIFERASE INFECTION ASSAY - IC50): 1.86 µM
IC90: 6.83 µM

CC(C)c1ccccc1N(C(=O)c1cc2ccccc2o1)c1nc2ccccc2s1
IC50 (HEPG2TOX_HILL_SLOPE 3.13, HEPG2TOX_R_SQUARED 0.898, read-out: LUCIFERASE INFECTION ASSAY - IC50): > 10 µM
IC90: > 10 µM

CCOc1cccc2c(C)nc(Nc3nc(=O)c4ccccc4[nH]3)nc12
IC50 (HEPG2TOX_HILL_SLOPE 3.19, HEPG2TOX_R_SQUARED 0.9, PBLUC_HILL_SLOPE 4.13, PBLUC_R_SQUARED 0.554, read-out: LUCIFERASE INFECTION ASSAY - IC50): 4.27 µM
IC90: 7.27 µM

c1ccc2cc(-c3cnc4ccc(NCc5ccncc5)nn34)ccc2c1
IC50 (HEPG2TOX_HILL_SLOPE 3.1, HEPG2TOX_R_SQUARED 0.978, PBLUC_HILL_SLOPE 7.42, PBLUC_R_SQUARED 0.525, read-out: LUCIFERASE INFECTION ASSAY - IC50): 3.34 µM
IC90: 4.49 µM

O=C(Nc1ccc(SC(F)(F)F)cc1)Nc1ccc(Sc2ccc(Cl)cc2)nc1
IC50 (HEPG2TOX_HILL_SLOPE 3.12, HEPG2TOX_R_SQUARED 0.943, PBLUC_HILL_SLOPE 7.91, PBLUC_R_SQUARED 0.378, read-out: LUCIFERASE INFECTION ASSAY - IC50): 3.97 µM
IC90: 5.24 µM

CCOC(=O)c1c(C)[nH]c(C(=O)COC(=O)c2[nH]nc3ccccc23)c1C
IC50 (HEPG2TOX_HILL_SLOPE 3.07, HEPG2TOX_R_SQUARED 0.979, PBLUC_HILL_SLOPE 5.58, PBLUC_R_SQUARED 0.622, read-out: LUCIFERASE INFECTION ASSAY - IC50): 8.71 µM
IC90: > 10 µM

COc1cc(-c2nc3ccc(NC(=O)Nc4ccc(C)cc4)cn3n2)cc(OC)c1OC
IC50 (HEPG2TOX_HILL_SLOPE 3.16, HEPG2TOX_R_SQUARED 0.688, PBLUC_HILL_SLOPE 3.03, PBLUC_R_SQUARED 0.446, read-out: LUCIFERASE INFECTION ASSAY - IC50): 1.39 µM
IC90: 2.87 µM

CC(C(=O)Nc1ccc(S(N)(=O)=O)cc1)N1CCC(CCc2ccccc2)CC1 (configuration not stated)
IC50 (HEPG2TOX_HILL_SLOPE 3.11, HEPG2TOX_R_SQUARED 0.733, PBLUC_HILL_SLOPE 2.39, PBLUC_R_SQUARED 0.628, read-out: LUCIFERASE INFECTION ASSAY - IC50): 5.36 µM
IC90: > 10 µM

COc1cccc(-c2cnn3ccc(Nc4ccc(NS(=O)(=O)c5ccc(C)cc5)cc4)nc23)c1
IC50 (HEPG2TOX_HILL_SLOPE 3.16, HEPG2TOX_R_SQUARED 0.917, PBLUC_HILL_SLOPE 15.1, PBLUC_R_SQUARED 0.0764, read-out: LUCIFERASE INFECTION ASSAY - IC50): 6.21 µM
IC90: > 6.8 µM

c1csc(-c2cnc3ccc(-c4cccc5ncccc45)nn23)c1
IC50 (HEPG2TOX_HILL_SLOPE 3.19, HEPG2TOX_R_SQUARED 0.792, PBLUC_HILL_SLOPE 2.95, PBLUC_R_SQUARED 0.78, read-out: LUCIFERASE INFECTION ASSAY - IC50): 2.49 µM
IC90: 5.26 µM

COc1cc(OC)cc(-c2cn3c(-c4ccc5c(ccn5C)c4)cnc3cn2)c1
IC50 (HEPG2TOX_HILL_SLOPE 3.11, HEPG2TOX_R_SQUARED 0.612, PBLUC_HILL_SLOPE 2.08, PBLUC_R_SQUARED 0.748, read-out: LUCIFERASE INFECTION ASSAY - IC50): 0.0568 µM
IC90: 0.163 µM

CCN1C(=O)N(Cc2cccc(OC)c2)C(=O)C12CCN(Cc1cc3ccccc3s1)CC2
IC50 (HEPG2TOX_HILL_SLOPE 3.09, HEPG2TOX_R_SQUARED 0.881, PBLUC_HILL_SLOPE 9.24, PBLUC_R_SQUARED 0.267, read-out: LUCIFERASE INFECTION ASSAY - IC50): 6.06 µM
IC90: > 7.12 µM
